Test results: patent US4029811A, “Certain antiinflammatory dihydrobenzofuran and dihydronaphthofuran acetic acid compounds” (SCHIAPPARELLI - Stabilimenti Chimici Farmaceutici Riuniti …, priority 1974, dated 1977)
“Also recorded” adds a separate entry of the source. Structures can show the parent of a compound that is named as a salt.

Tests used:
rat hind paw edema = test: Carrageenin-induced edema assay; type: in vivo; settings: po, 3 hours after carrageenin, tested compounds as sodium salts; for inhibition in vivo at 200 mg/kg: 200 mg/Kg/os; for inhibition in vivo at 12.5 mg/kg: 12.5 mg/Kg/os; for inhibition in vivo at 25 mg/kg: 25 mg/Kg/os; for inhibition in vivo at 50 mg/kg: 50 mg/Kg/os; for inhibition in vivo at 100 mg/kg: 100 mg/Kg/os; for inhibition in vivo at 10 mg/kg: 10 mg/Kg/os; for inhibition in vivo at 30 mg/kg: 30 mg/Kg/os; for inhibition in vivo at 90 mg/kg: 90 mg/Kg/os
Method: Paw edema was measured by fluid displacement when the paw was immersed in a cup of mercury.

abdominal stretching = test: Anti-writhing assay (acetic acid); type: in vivo, mouse; settings: 200 mg/Kg p.o., 20 minutes before 3% acetic acid i.p.; counted 20 minutes
Method: Male albino Swiss Mice, each weighing 20 to 22 g, were used. The animals were fasted for 18 hours before pharmacological treatment. […] The number of abdominal stretching was counted for 20 minutes following the acetic acid injection.

[1] = test system: experimental polyarthritis; test: Experimental polyarthritis assay (modified Freund's adjuvant); type: in vivo, rat; settings: for Activity in experimental polyarthritis assay: 14 days, paw volume, FIG. 1
Method: Three groups of 10 Wistar rats were used. […] Pharmacological treatment was carried out for 14 days, while the third group served as control. Paw edema was measured as for the carrageenin-induced edema. Results are reported in FIG. 1 as % increase of paw volume immediately before modified Freund's adjuvant injection.

Wistar rats [2] = test: Long-term toxicity (60 days oral) in Wistar rats; type: in vivo; settings: 60 mg/kg daily orally
Method: Compound (I) has been tested by employing 40 Wistar rats subdivided into 2 groups of 20 animals (10 male and 10 female). One of the groups (reference group) was fed in conventional manner, while 60 mg/kg daily of the compound on test were administered orally to the animals of the other group. The treatment was continued during 60 days: every 15 days the following aspects were checked: body weight, blood pressure (by incruent method), cardiac frequency, hemochromocytometric examination and urine analysis.
At the end of treatment, all animals have been sacrificed and subjected to further examinations (hemochromocytometric, serum-biochemical, enzymatic, electrolytic and autopsic examination).

Wistar rats [3] = test: Teratogenic studies in Wistar rats; type: in vivo; settings: 30 mg/Kg and 60 mg/Kg orally
Method: Tests in the attempt of discovering any teratogenic and fetal-toxicity effects have been carried out in conventional manner on Wistar rats, to which compound (I) has been administered orally at dosages of 30 mg/Kg and 60 mg/Kg.

[4] = test system: painful osteoarticular processes; test: Clinical tests in patients with painful osteoarticular processes; type: in vivo, human
Method: 14 patients were treated with a dosage of 100 mg three times daily, during a period of three days; in further seven cases the treatment was 200--300 mg daily during 8-10 days. The remaining four patients received a dosage of 200 mg three times daily during periods of three to five days.

[5] = case 1, 100 mg three times daily
[6] = case 1, lumbosacral arthrosis, 100 mg three times daily

CCC1CCc2cc(CC(=O)O)ccc2O1 (stereo not drawn) [(II), 2-ethylchroman-6-yl-acetic acid]
inhibition in vivo at 200 mg/kg (rat hind paw edema): 31% | % Stretching decrease from the control (abdominal stretching): 42%

O=C(O)Cc1ccc2c3c(ccc2c1)OCC3 [(III), 1,2-Dihydronaphtho [2,1-b] furan-7-acetic acid]
inhibition in vivo at 200 mg/kg (rat hind paw edema): 51% | Activity relative to compound (I) ([1]; same conditions as for compound (I)): quite analogous to the activity of compound (I) | % Stretching decrease from the control (abdominal stretching): 73%

O=C(O)Cc1ccc2c3c(ccc2c1)OCCC3 [(IV), 1H-2,3-Dihydronaphtho [2,1-b]pyran-8-yl-acetic acid]
inhibition in vivo at 200 mg/kg (rat hind paw edema): 64% | % Stretching decrease from the control (abdominal stretching): 62%

CCC1Cc2cc(C(C)C(=O)O)ccc2O1 (stereo not drawn) [(VI), 2(2-Ethyl-2,3-dihydrobenzofuran-5-yl)-propionic acid]
inhibition in vivo at 12.5 mg/kg (rat hind paw edema): 19.3% | inhibition in vivo at 25 mg/kg (rat hind paw edema): 41.6% | inhibition in vivo at 50 mg/kg (rat hind paw edema): 43.9% | inhibition in vivo at 100 mg/kg (rat hind paw edema): 59.1%

CCC1CCc2cc(C(C)C(=O)O)ccc2O1 (stereo not drawn) [(VII), 2(2-Ethylchroman-6-yl)-propionic acid]
inhibition in vivo at 12.5 mg/kg (rat hind paw edema): 28.7% | inhibition in vivo at 25 mg/kg (rat hind paw edema): 50.2% | inhibition in vivo at 50 mg/kg (rat hind paw edema): 31.2% | inhibition in vivo at 100 mg/kg (rat hind paw edema): 45.9%

CCC1Cc2cc(CC(=O)O)ccc2O1 (stereo not drawn) [Compound (I), 2,3-dihydro-2-ethylbenzofuran-5-yl-acetic acid]
Food consumption (Wistar rats [2]; 60 days): The food consumption was regular | Lethal cases (Wistar rats [2]; 60 days): No lethal cases have been observed | Alterations induced by prolonged administration (Wistar rats [2]; 60 days, conclusion): does not induce biologically relevant alterations | Hemochromocytometric, serum-biochemical, enzymatic, electrolytic and autopsic examination (Wistar rats [2]; at end of 60 days treatment): No significant variations have been observed | Body weight increase, blood pressure, cardiac frequency, hemochromocytometric examination and urine analysis (Wistar rats [2]; checked every 15 days during 60 days, versus reference group): No differences have been noted | Pregnancy disturbances and/or toxic effects on fetus (Wistar rats [3]): No. pregnancy disturbances and/or toxic effects on fetus have been observed | inhibition in vivo at 10 mg/kg (rat hind paw edema): 28% | inhibition in vivo at 30 mg/kg (rat hind paw edema): 46% | inhibition in vivo at 90 mg/kg (rat hind paw edema): 58% | inhibition in vivo at 200 mg/kg (rat hind paw edema): 68% | Activity in experimental polyarthritis assay ([1]; 200 mg/Kg p.o.): significant activity | Activity versus reference drug (phenylbutazone) ([1]; 200 mg/Kg p.o., at least in the first 9 days of treatment): superior to the reference drug | % Stretching decrease from the control (abdominal stretching): 81% | Side effects ([4]; 25 patients, oral): no side effects having been observed | Tolerability ([4]; 25 patients, oral): always well tolerated | Antalgic-antiinflammatory effect ([4]; 25 patients, oral, overall): significant antalgic-antiinflammatory effect | Side effects [4, 5]: no side effects having been observed | Tolerability [4, 5]: exceedingly well tolerated | Clinical response, first day [4, 6]: fair symptomatologic relief | Clinical response, second day [4, 6]: improvement persists on the second day with an increased possibility for movement and gait | Clinical response, third day [4, 6]: the painful pattern has almost totally regressed | Side effects ([4]; case 2, 100 mg three times daily, eight days): No side effect | Clinical response ([4]; case 2, polyarthrosis, 100 mg three times daily, eight days): clear symptomatologic relief; gait is easier on the 4th and 5th day and mobility of the knee joint is improved; also recorded: Clearly positive clinical appreciation | Side effects ([4]; case 3, 100 mg three times daily, seven days): No side effect | Clinical response ([4]; case 3, cervical arthrosis, 100 mg three times daily, seven days): The patient reports relief; disappearance of cephalgia, possibility of rotating the cervical column initially blocked by pain; also recorded: almost total regression of algic aggravation | Side effects ([4]; case 4, 100 then 200 mg three times daily): no side effect | Clinical response ([4]; case 4, bilateral coxo-arthrosis, 100 mg three times daily days 1-2, 200 mg three times daily day 3): satisfactory response of the painful pattern with a progressive reduction in algic symptomatology; also recorded: Appreciably favourable clinical response | Side effects ([4]; case 5, 100 mg three times daily, five days): without any side effect | Clinical response ([4]; case 5, spinal arthrosis, 100 mg three times daily, five days): good antalgic effect; improved freedom of active and passive movements of the spinal column | Antalgic-antiinflammatory effect judged slight ([4]; five of 25 cases): 20% | Antalgic-antiinflammatory effect judged good or very good ([4]; seventeen of 25 cases): 68% | Antalgic-antiinflammatory effect judged none ([4]; three of 25 cases): 12%

CC(C)Cc1ccc(C(C)C(=O)O)cc1 (stereo not drawn) [Ibuprofen, 2-(4-isobutyl-phenyl)-propionic acid-sodium salt, reference compound]
inhibition in vivo at 12.5 mg/kg (rat hind paw edema): 42.1% | inhibition in vivo at 25 mg/kg (rat hind paw edema): 38.1% | inhibition in vivo at 50 mg/kg (rat hind paw edema): 52.1% | inhibition in vivo at 100 mg/kg (rat hind paw edema): 46.9%

CCCCC1C(=O)N(c2ccccc2)N(c2ccccc2)C1=O [Phenylbutazone, reference compound]
inhibition in vivo at 10 mg/kg (rat hind paw edema): 8% | inhibition in vivo at 30 mg/kg (rat hind paw edema): 17% | inhibition in vivo at 90 mg/kg (rat hind paw edema): 20% | inhibition in vivo at 200 mg/kg (rat hind paw edema): 42% | Activity in experimental polyarthritis assay ([1]; 200 mg/Kg p.o.): significant activity | % Stretching decrease from the control (abdominal stretching): 43%
